According to PMC5206724, “Insensitivity to pain induced by a potent selective closed-state Nav1.7 inhibitor” (Scientific Reports, 2017):
Like-named read-outs stand apart in the source and are kept apart here.

Experiments:
[1] = 0.5 μg/h IT infusion; in words
Experimental: Efficacy was assessed in the hotplate and tail flick tests at various time points before pump implantation, during infusion and after discharge of the pumps.
All peptides were formulated in DPBS (no Ca^2+ and Mg^2+) and stored at 4 °C until use. For bolus administration, 10 μl of compound solution or vehicle were injected via the IT catheter followed by 10 μl saline flush. […] The osmotic pump was implanted subcutaneously above the scapula. Animals were excluded from behavioral studies if any motor dysfunction was noted following IT injection, if baseline thresholds were >90% or <10% of the cut-off value in the tail flick, hotplate and Hargreaves test, if there was significant leak (>20 μl) while injecting formalin into the paw or any malfunction of the metal bands or formalin apparatus. Intrathecal compound was administered 15 min–1 h before commencing behavioral testing. Intrathecal-cannulated rats were trained on the behavioral apparatus for at least two days before baseline withdrawal latencies were taken. All behavioral tests were conducted by an investigator blinded to group and treatment.

hNav1.6 [2] = target: T1, hNav1.6 (Homo sapiens, UniProt Q9UQD0); assay: cell-based; conditions: QPatch; for Emax: read-out: Fitted Emax hNav1.6
[3] = for mentation BAR (bright, alert and responsive) / normal corneal reflex / normal pinna reflex / normal placing stepping / scratching: 1.4 mg/100 μl perineural
Excerpt: Rats ~250–300 g were placed under Isoflurane anesthesia (4% for induction, 2% for maintenance). A single hip and proximal hind-leg area were shaved and the injection area prepped with alternating applications of chlorhexidine 2% soln. and isopropyl alcohol 70%. A pelvic notch just distal to the greater trochanter was located with palpation and a starter hole was made through the dermis using a 20G hypodermic needle. A 22G nerve stimulating injection needle (ProBloc II, cat#HN3S-40, Halyard Health) connected to a peripheral nerve stimulation device (EZstim II model ES400, Life-Tech, Inc.) was placed into the starter hole. The nerve stimulator was set to 0.7 mA and the injection needle was gently advanced in a line parallel to the femur until localized dorsal or plantar flexion of the foot was observed. Generalized muscle twitching involving primary twitching on the quadriceps muscle was considered a negative response and the needle was carefully re-positioned until the appropriate localized foot flicking was observed. […] The device was increased back to 0.2 mA and if twitching was still observed, the 100 μL injection was given.

hNav1.4 [4] = target: T2, hNav1.4 (Homo sapiens, UniProt P35499); assay: cell-based; conditions: QPatch; read-out: Fitted Emax hNav1.4
hNav1.4 [5] = target: T2, hNav1.4; assay: cell-based; conditions: manual patch clamp; read-out: Fitted Emax hNav1.4
hNav1.1 [6] = target: T3, hNav1.1 (Homo sapiens, UniProt P35498); assay: cell-based; conditions: manual patch clamp
hNav1.6 [7] = target: T1, hNav1.6; assay: cell-based; conditions: manual patch clamp
hNav1.2 [8] = target: T4, hNav1.2 (Homo sapiens, UniProt Q99250); assay: cell-based; conditions: manual patch clamp; read-out: Fitted Emax hNav1.2
[9] = for maximum tolerated dose (MTD), IT: intrathecal; for lesions to the face and shoulders: rats; for abnormal proprioception of hind paws / abnormal stepping / flaccidity / hindlimb weakness: baseline 0/7
hNav1.7 [10] = target: T5, hNav1.7 (Homo sapiens, UniProt Q15858); assay: cell-based; conditions: QPatch; read-out: Fitted Emax hNav1.7
T5 construct: host or cells: HEK293

hNav1.2 [11] = target: T4, hNav1.2; assay: cell-based; conditions: QPatch; read-out: Fitted Emax hNav1.2
hNav1.1 [12] = target: T3, hNav1.1; assay: cell-based; conditions: QPatch; read-out: Fitted Emax hNav1.1
hNav1.7 [13] = target: T5, hNav1.7; assay: cell-based; conditions: manual patch clamp; read-out: Fitted Emax hNav1.7
hNav1.5 = hNav1.5 (Homo sapiens, UniProt Q14524); assay: cell-based; conditions: QPatch; read-out: Fitted Emax hNav1.5
hNav1.3 = hNav1.3 (Homo sapiens, UniProt Q9NY46); assay: cell-based; conditions: QPatch; read-out: Fitted Emax hNav1.3
[14] = 0.5 μg/10 μl IT, 2 h post dose (1 h post formalin)
[15] = 2.5 μg/10 μl IT, 2 h post dose (1 h post formalin)
[16] = 2.5 μg/10 μl IT, first 2 animals not assessed
[17] = 2 μg/10 μl IT, 30 min post dosing
[18] = 2 μg/10 μl IT, 90 min post dosing
[19] = 2 μg/10 μl IT, formalin study, in words

T2 sequence (P35499 whole entry): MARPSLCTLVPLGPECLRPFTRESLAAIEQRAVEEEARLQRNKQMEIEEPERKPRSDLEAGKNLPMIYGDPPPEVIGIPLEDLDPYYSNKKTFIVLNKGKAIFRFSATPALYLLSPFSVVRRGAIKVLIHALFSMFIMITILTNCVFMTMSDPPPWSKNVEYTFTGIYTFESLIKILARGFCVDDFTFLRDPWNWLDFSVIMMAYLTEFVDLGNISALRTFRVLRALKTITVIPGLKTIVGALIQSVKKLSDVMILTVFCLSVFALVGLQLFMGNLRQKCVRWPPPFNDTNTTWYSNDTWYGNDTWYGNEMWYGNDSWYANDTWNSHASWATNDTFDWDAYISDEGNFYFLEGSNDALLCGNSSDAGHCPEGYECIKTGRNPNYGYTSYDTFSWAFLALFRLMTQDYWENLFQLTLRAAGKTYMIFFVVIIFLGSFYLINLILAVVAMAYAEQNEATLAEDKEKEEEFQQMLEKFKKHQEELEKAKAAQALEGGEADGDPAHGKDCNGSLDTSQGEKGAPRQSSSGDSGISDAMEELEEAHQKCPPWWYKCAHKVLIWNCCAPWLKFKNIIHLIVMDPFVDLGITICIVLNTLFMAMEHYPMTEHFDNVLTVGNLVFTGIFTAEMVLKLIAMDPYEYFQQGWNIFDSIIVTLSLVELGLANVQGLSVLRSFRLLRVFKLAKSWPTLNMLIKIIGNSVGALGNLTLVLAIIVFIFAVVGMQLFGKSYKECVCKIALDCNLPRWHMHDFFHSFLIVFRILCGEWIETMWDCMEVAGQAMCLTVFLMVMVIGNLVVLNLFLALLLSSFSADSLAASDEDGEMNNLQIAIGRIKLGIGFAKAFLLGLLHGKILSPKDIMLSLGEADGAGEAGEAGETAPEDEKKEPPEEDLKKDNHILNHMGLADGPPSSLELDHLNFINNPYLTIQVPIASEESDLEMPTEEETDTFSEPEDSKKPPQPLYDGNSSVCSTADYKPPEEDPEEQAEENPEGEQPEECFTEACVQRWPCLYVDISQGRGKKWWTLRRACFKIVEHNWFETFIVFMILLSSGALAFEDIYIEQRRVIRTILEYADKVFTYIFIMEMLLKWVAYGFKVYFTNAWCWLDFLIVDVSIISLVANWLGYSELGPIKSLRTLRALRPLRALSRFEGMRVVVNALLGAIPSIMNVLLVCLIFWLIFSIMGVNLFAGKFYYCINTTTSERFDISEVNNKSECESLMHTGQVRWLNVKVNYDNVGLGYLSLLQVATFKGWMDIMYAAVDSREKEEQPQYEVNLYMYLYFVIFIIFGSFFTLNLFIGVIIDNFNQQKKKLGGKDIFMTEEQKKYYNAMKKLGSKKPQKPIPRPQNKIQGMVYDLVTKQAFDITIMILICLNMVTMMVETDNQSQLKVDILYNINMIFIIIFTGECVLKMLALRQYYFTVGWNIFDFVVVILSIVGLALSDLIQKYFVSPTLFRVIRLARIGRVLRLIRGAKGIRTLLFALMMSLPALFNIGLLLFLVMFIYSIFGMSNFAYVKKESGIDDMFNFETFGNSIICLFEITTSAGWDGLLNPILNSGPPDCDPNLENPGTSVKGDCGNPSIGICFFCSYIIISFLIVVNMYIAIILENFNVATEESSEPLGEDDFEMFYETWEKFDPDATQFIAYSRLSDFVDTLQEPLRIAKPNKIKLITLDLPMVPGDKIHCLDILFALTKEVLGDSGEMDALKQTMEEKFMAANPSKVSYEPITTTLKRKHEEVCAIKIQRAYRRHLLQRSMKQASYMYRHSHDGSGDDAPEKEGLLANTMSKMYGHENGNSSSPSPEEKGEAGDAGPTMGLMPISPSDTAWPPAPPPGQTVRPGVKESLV
T4 sequence (Q99250 whole entry): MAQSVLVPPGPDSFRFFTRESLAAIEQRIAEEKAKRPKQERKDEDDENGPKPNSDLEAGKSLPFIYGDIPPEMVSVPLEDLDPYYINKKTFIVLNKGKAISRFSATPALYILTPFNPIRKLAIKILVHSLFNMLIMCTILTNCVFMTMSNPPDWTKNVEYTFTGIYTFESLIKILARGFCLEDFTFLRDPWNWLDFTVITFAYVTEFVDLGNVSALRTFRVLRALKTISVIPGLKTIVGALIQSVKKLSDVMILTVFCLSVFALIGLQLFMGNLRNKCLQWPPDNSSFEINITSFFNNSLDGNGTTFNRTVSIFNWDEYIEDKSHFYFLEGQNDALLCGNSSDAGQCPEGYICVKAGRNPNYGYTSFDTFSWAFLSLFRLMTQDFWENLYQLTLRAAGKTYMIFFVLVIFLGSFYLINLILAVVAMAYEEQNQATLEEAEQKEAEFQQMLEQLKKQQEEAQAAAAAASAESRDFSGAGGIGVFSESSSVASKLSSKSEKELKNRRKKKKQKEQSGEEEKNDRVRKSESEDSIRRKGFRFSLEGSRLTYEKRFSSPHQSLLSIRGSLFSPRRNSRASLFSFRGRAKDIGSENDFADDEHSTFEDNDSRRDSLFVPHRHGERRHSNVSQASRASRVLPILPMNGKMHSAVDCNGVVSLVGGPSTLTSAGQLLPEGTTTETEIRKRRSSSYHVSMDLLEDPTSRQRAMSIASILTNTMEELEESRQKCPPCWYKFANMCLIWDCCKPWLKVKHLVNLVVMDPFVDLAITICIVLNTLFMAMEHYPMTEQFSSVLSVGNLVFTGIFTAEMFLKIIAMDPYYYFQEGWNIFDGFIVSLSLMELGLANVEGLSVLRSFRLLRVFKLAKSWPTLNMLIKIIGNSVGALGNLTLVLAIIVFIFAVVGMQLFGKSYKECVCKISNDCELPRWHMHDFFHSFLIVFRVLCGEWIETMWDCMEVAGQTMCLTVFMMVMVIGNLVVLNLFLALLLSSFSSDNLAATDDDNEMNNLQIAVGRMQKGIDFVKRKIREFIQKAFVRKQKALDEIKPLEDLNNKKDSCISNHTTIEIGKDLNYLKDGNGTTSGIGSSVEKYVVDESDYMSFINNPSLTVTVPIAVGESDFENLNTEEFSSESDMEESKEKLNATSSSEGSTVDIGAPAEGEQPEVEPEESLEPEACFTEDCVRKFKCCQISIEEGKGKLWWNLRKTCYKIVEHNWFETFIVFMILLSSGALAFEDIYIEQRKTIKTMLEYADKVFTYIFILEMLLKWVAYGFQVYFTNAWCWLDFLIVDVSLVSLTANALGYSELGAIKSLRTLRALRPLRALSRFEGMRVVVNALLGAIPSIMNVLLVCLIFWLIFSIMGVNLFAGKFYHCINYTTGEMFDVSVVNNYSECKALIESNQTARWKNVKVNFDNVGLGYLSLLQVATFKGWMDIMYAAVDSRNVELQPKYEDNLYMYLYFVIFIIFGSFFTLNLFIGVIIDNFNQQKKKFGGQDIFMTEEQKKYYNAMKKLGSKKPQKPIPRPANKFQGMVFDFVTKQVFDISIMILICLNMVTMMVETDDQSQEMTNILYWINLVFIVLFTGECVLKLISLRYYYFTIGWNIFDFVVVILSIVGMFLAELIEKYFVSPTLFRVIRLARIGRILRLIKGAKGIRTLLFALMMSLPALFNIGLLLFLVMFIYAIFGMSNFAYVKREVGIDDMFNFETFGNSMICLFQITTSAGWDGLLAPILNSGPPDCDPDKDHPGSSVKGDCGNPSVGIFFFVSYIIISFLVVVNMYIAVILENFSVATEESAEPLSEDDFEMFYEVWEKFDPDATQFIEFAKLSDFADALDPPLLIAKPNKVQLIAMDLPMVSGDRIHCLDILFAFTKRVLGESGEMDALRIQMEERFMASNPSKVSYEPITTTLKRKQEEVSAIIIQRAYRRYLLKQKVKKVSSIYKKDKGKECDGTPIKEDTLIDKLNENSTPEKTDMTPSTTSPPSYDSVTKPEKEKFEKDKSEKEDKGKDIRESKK

SMILES: CSCC[C@@H]1NC(=O)CNC(=O)[C@H](CCC(=O)O)NC(=O)[C@@H]2CSSC[C@H](NC(=O)[C@H](Cc3ccc(O)cc3)NC(=O)[C@@H]3CCCN3C(=O)CN)C(=O)N[C@@H](CCC(N)=O)C(=O)N[C@@H](CCCCN)C(=O)N[C@@H](Cc3c[nH]c4ccccc34)C(=O)N[C@@H](CCSC)C(=O)N[C@@H](CCC(N)=O)C(=O)N[C@@H]([C@@H](C)O)C(=O)N[C@H]3CSSC[C@H](NC(=O)[C@H](C(C)C)NC1=O)C(=O)N[C@@H](CCCNC(=N)N)C(=O)N[C@@H](CC(C)C)C(=O)N[C@@H](Cc1c[nH]c4ccccc14)C(=O)N[C@H](C(=O)N[C@@H](CCCCN)C(=O)N[C@@H](CCCCN)C(=O)N[C@@H](CCCCN)C(=O)N[C@@H](CC(C)C)C(=O)N[C@@H](CC(C)C)C(=O)O)CSSC[C@H](NC(=O)[C@H](CCCCN)NC(=O)[C@H](CCCNC(=N)N)NC(=O)[C@H](CCC(=O)O)NC(=O)[C@H](CO)NC(=O)[C@H](CC(=O)O)NC3=O)C(=O)N2 [JNJ63955918]
- body weight gain vs vehicle [1]: gained weight at the same rate
- motor or other behavioral abnormalities [1]: No motor or other behavioral abnormalities were observed
- scabbing [1]: Some scabbing on the face, shoulders, hind limbs and tail
- Emax (hNav1.6 [2]): 100%
- scratching / behavioral abnormalities ([3]; 1.4 mg/100 μl peri-sciatic, in words): Scratching was observed in some animals but no other behavioral abnormalities were noted
- mentation BAR (bright, alert and responsive) ([3]; 15 min post dose): 7/9
- normal corneal reflex ([3]; 15 min post dose): 9/9
- normal pinna reflex ([3]; 15 min post dose): 9/9
- normal placing stepping ([3]; 15 min post dose): 9/9
- scratching ([3]; 15 min post dose): 0/9
- mentation BAR (bright, alert and responsive) ([3]; 30 min post dose): 4/9
- normal corneal reflex ([3]; 30 min post dose): 9/9
- normal pinna reflex ([3]; 30 min post dose): 9/9
- normal placing stepping ([3]; 30 min post dose): 9/9
- scratching ([3]; 30 min post dose): 1/9
- mentation BAR (bright, alert and responsive) ([3]; 60 min post dose): 5/9
- normal corneal reflex ([3]; 60 min post dose): 9/9
- normal pinna reflex ([3]; 60 min post dose): 9/9
- normal placing stepping ([3]; 60 min post dose): 9/9
- scratching ([3]; 60 min post dose): 2/9
- mentation BAR (bright, alert and responsive) ([3]; 120 min post dose): 6/9
- normal corneal reflex ([3]; 120 min post dose): 9/9
- normal pinna reflex ([3]; 120 min post dose): 9/9
- normal placing stepping ([3]; 120 min post dose): 9/9
- scratching ([3]; 120 min post dose): 2/9
- mentation BAR (bright, alert and responsive) ([3]; 240 min post dose): 8/9
- normal corneal reflex ([3]; 240 min post dose): 9/9
- normal pinna reflex ([3]; 240 min post dose): 9/9
- normal placing stepping ([3]; 240 min post dose): 9/9
- scratching ([3]; 240 min post dose): 1/9
- mentation BAR (bright, alert and responsive) ([3]; 24 h post dose): 9/9
- normal corneal reflex ([3]; 24 h post dose): 9/9
- normal pinna reflex ([3]; 24 h post dose): 9/9
- normal placing stepping ([3]; 24 h post dose): 9/9
- gross motor deficits ([3]; 2.5 mg/100 μl peri-sciatic, in words): absence of any gross motor deficits
- tolerability, peri-sciatic ([3]; up to 2.5 mg/100 μl, in words): well tolerated
- Emax (hNav1.4 [4]): 100%
- Emax (hNav1.4 [5]): 100%
- IC50 (hNav1.1 [6]; holding −120 mV, test −10 mV, 0.1% BSA, 22–24 °C, read-out: pIC50 hNav1.1 (converted)): 10000 nM
- Emax (hNav1.1 [6]; read-out: Fitted Emax hNav1.1): 100%
- IC50 (hNav1.6 [7]; holding −120 mV, test −10 mV, 0.1% BSA, 22–24 °C, read-out: pIC50 hNav1.6 (converted)): 1000 nM
- Emax (hNav1.6 [7]; read-out: Fitted Emax hNav1.6): 100%
- Emax (hNav1.2 [8]): 50 ± 18.5%
- gross motor normal ([9]; 0.5 μg/10 μl IT, 1 h post dose): 6/6
- normal proprioception ([9]; 0.5 μg/10 μl IT, 1 h post dose): 6/6
- gross motor normal [9, 14]: 6/6
- normal proprioception [9, 14]: 6/6
- abrasions at euthanasia ([9]; 0.5 μg/10 μl IT, first 2 animals not assessed): 0/4
- gross motor normal ([9]; 2.5 μg/10 μl IT, 1 h post dose): 6/6
- normal proprioception ([9]; 2.5 μg/10 μl IT, 1 h post dose): 6/6
- gross motor normal [9, 15]: 6/6
- normal proprioception [9, 15]: 6/6
- excessive scratching leading to upper body skin abrasion (animals affected) ([9]; 2.5 μg/10 μl IT, blinded repeat study): 2 of 4
- abrasions at euthanasia [9, 16]: 2/4
- scratching [9, 16]: 2/4
- duration of muscle weakness ([9]; 7.5 μg/10 μl IT): < 1 h
- incidence of mild reversible muscle weakness ([9]; 7.5 μg/10 μl IT): approximately 50%
- scabbing ([9]; IT dose range finding, in words): Scabbing on face/neck/shoulders was observed in some rats
- motor impairment ([9]; IT doses above 7.5 μg/10 μl, in words): Dose related motor impairment became more obvious and the duration of the effects was longer
- tolerability ([9]; IT doses up to 5 μg/10 μl, in words): well tolerated with no detectable abnormal behaviors
- in-vivo safety window ([9]; rat, in vivo): 7–16 fold
- therapeutic margin vs ziconotide ([9]; rat, in vivo): greater than that of ziconotide
- maximum tolerated dose (MTD), IT ([9]; rat): 5 μg/10 μl
- lesions to the face and shoulders ([9]; in words): often noticed
- Emax (hNav1.7 [10]): 79.1 ± 3.4%
- Emax (hNav1.2 [11]): 27.6 ± 7.3%
- Emax (hNav1.1 [12]): 100%
- Emax (hNav1.7 [13]): 94.8 ± 3.3%

SMILES: CSCC[C@@H]1NC(=O)CNC(=O)[C@H](CCC(=O)O)NC(=O)[C@@H]2CSSC[C@H](NC(=O)[C@@H](N)Cc3ccc(O)cc3)C(=O)N[C@@H](CCC(N)=O)C(=O)N[C@@H](CCCCN)C(=O)N[C@@H](Cc3c[nH]c4ccccc34)C(=O)N[C@@H](CCSC)C(=O)N[C@@H](Cc3c[nH]c4ccccc34)C(=O)N[C@@H]([C@@H](C)O)C(=O)N[C@H]3CSSC[C@H](NC(=O)[C@H](C(C)C)NC1=O)C(=O)N[C@@H](CCCNC(=N)N)C(=O)N[C@@H](CC(C)C)C(=O)N[C@@H](Cc1c[nH]c4ccccc14)C(=O)N[C@H](C(=O)N[C@@H](CCCCN)C(=O)N[C@@H](CCCCN)C(=O)N[C@@H](CCCCN)C(=O)N[C@@H](CC(C)C)C(=O)N[C@@H](Cc1c[nH]c4ccccc14)C(=O)O)CSSC[C@H](NC(=O)[C@H](CCCCN)NC(=O)[C@H](CCCNC(=N)N)NC(=O)[C@H](CCC(=O)O)NC(=O)[C@H](CO)NC(=O)[C@H](CC(=O)O)NC3=O)C(=O)N2 [ProTX-II, reference compound]
- IC50 (hNav1.6 [2]; CHO cells, holding −60 mV, 0.1% BSA, ~22 °C, ± SEM, read-out: pIC50 hNav1.6 (converted)): 31.6 nM
- Emax (hNav1.6 [2]): 100%
- Emax (hNav1.5): 100%
- ambulation ([3]; 250 μg/100 μl peri-sciatic, in words): No effect upon ambulation
- tolerability, peri-sciatic ([3]; 250 μg/100 μl, in words): well tolerated at the highest dose tested
- Emax (hNav1.4 [4]): 100%
- Emax (hNav1.3): 100%
- abnormal proprioception of hind paws [9, 17]: 2/7
- abnormal stepping [9, 17]: 2/7
- flaccidity [9, 17]: 1/7
- hindlimb weakness [9, 17]: 2/7
- abnormal proprioception of hind paws [9, 18]: 0/7
- abnormal stepping [9, 18]: 0/7
- flaccidity [9, 18]: 0/7
- hindlimb weakness [9, 18]: 2/7
- abrasions and scabs [9, 19]: Abrasions and scabs to the face, neck, and shoulders were observed in some
- effect on motor function [9, 19]: without any severe effect on motor function
- motor effects just above efficacious dose ([9]; rat, IT, in words): exerts profound motor effects at doses just above the efficacious analgesic dose
- motor effects above maximum tolerated IT dose ([9]; rat, higher than 2 μg/10 μl, in words): dose-related motor abnormalities that progressed from transient rear weakness, to paralysis of both the hind and forelimbs, slowing of respiration and death
- maximum tolerated dose (MTD), IT ([9]; rat): 2 μg/10 μl
- lesions to the face and shoulders ([9]; in words): often noticed
- Emax (hNav1.2 [11]): 100%
- Emax (hNav1.1 [12]): 100%
